Test system: IgE antibody production
Test: Activity to inhibit the IgE antibody production in mice sensitized with egg albumin (ELISA of plasma IgE)
Format: in vivo, male BALB/c mice
Details: Mus musculus, 240 h; 3 mg/kg/day, oral, once a day for seven times; blood ten days after sensitization; BALB/c mice; read-out: Percentage of the IgE antibody production inhibited
Experimental: Groups of five male BALB/c mice (body weight: 20 to 25 g) each were sensitized by intraperitoneally injection with 4 mg of aluminum hydroxide to which absorbed 10 μg of egg albumin. The test compound is suspended in a gum arabic solution, and the suspensions of different concentrations were orally administered to the animals once a day for seven times in total from immediately after the sensitization. The gum arabic suspension having no test compound added was used for the control.
Blood was collected from the animal ten days after the sensitization, and the collected blood was evaluated for the amount of the IgE antibody produced by ELISA. In brief, the plasma sample was added to immobilized anti-mouse igE antibody, and then, reacting with the anti-mouse IgE antibody having labeled with horseradish peroxidase. The amount of the IgE antibody produced was calculated by using the activity of the horseradish peroxidase for the index (See Meneki-to-Shikkan (Immune and Diseases), 15, 211-216, 1988).
In Table 1, there are shown the amount of the test compounds administered and the percentage of the IgE antibody production inhibited calculated by equation 1: [formula]

| SMILES | inhibition at 3 mg/kg [%] |
| --- | --- |
| Clc1ccc(-c2cn3cccc4c3c2CCC4)cc1 [Example 3, 1-(4-chlorophenyl) -8,9-dihydro-7H-pyrrolo-[3,2,1-ij]quinoline] | 64 |
| Fc1ccc(-c2cn3cccc4c3c2CCC4)cc1 [Example 99, 8,9-dihydro-1-(4-fluorophenyl)-7H-pyrrolo-[3,2,1-ij]quinoline] | 43 |

Same assay, conditions: Mus musculus, 240 h; 10 mg/kg/day, oral, once a day for seven times; blood ten days after sensitization; BALB/c mice; read-out: Percentage of the IgE antibody production inhibited

| SMILES | inhibition at 10 mg/kg [%] |
| --- | --- |
| NC1CCc2c(-c3ccc(Cl)cc3)cn3cccc1c23 (centres unmarked) [Example 7, 7-amino-1-(4-chlorophenyl)-8,9-dihydro-7H-pyrrolo[3,2,1-ij]quinoline] | 49 |
| C=C1CCc2c(-c3ccc(Cl)cc3)cn3cccc1c23 [Example 9, 1-(4-chlorophenyl)-8,9-dihydro-7-methylene-7H-pyrrolo[3,2,1-ij]quinoline] | 65 |
| Brc1ccc(-c2cn3cccc4c3c2CCC4)cc1 [Example 100, 1-(4-bromophenyl)-8,9-dihydro-7H-pyrrolo-[3,2,1-ij]quinoline] | 77 |
| c1ccc2cc(-c3cn4cccc5c4c3CCC5)ccc2c1 [Example 108, 8,9-dihydro-1-(2-naphthyl)-7H-pyrrolo[3,2,1-ij]quinoline] | 71 |
| Cc1ccc(-c2cn3cccc4c3c2CCC4)cc1 [Example 109, 8,9-dihydro-1-(4-methylphenyl)-7H-pyrrolo-[3,2,1-ij]quinoline] | 45 |

Same assay, conditions: Mus musculus, 240 h; 30 mg/kg/day, oral, once a day for seven times; blood ten days after sensitization; BALB/c mice; read-out: Percentage of the IgE antibody production inhibited

| SMILES | inhibition at 30 mg/kg [%] |
| --- | --- |
| NN=C1CCc2c(-c3ccc(Br)cc3)cn3cccc1c23 [Example 4, 1-(4-bromophenyl)-8,9-dihydro-7H-pyrrolo[3,2,1-ij]quinolin-7-one hydrazone] | 47 |
| NN=C1CCn2c(-c3ccc(Cl)cc3)nc3cccc1c32 [Example 15, 2-(4-chlorophenyl)-4,5-dihydro-6H-imidazo-[4,5,1-ij]quinolin-6-one hydrazone] | 53 |
| CON=C1CCn2c(-c3ccc(Cl)cc3)nc3cccc1c32 [Example 16, 2-(4-chlorophenyl)-4,5-dihydro-6-methoxyimino-6H-imidazo[4,5,1-ij]quinoline] | 54 |
| NC1CCn2c(-c3ccc(C(F)(F)F)cc3)nc3cccc1c32 (centres unmarked) [Example 71, 6-amino-4,5-dihydro-2-(4-trifluoromethylphenyl)-imidazo[4,5,1-ij]quinoline] | 78 |
| O=C1CCc2c(-c3ccc(C(F)(F)F)cc3)cn3cccc1c23 [Example 81, 8,9-dihydro-1-(4-trifluoromethylphenyl)-7H-pyrrolo[3,2,1-ij]quinolin-7-one] | 61 |
| ON=C1CCc2c(-c3ccc(C(F)(F)F)cc3)cn3cccc1c23 [Example 92, 8,9-dihydro-1-(4-trifluoromethylphenyl)-7H-pyrrolo[3,2,1-ij]quinolin-7-oneoxi] | 50 |
| NN=C1CCc2c(-c3ccc(Cl)cc3)cn3cccc1c23 [Example 117, 1-(4-chlorophenyl)-8,9-dihydro-7H-pyrrolo-[3,2,1-ij]quinolin-7-one hydrazone] | 44 |
| CC(C)=NN=C1CCc2c(-c3ccc(Cl)cc3)cn3cccc1c23 [Example 124, 1-(4-chlorophenyl)-8,9-dihydro-7H-pyrrolo-[3,2,1-ij]quinolin-7-one isopropylidenehydrazone] | 45 |
| FC(F)(F)c1ccc(-c2cn3cccc4c3c2CCC4)cc1 [Example 130, 8,9-dihydro-1-(4-trifluoromethylphenyl)-7H-pyrrolo[3,2,1-ij]quinoline] | 86 |
| NC1CCc2c(-c3ccc(C(F)(F)F)cc3)cn3cccc1c23 (centres unmarked) [Example 132, 7-amino-8,9-dihydro-1-(4-trifluoromethylphenyl)-7H-pyrrolo[3,2,1-ij]quinoline] | 80 |
| ON=C1CCn2c(-c3ccccc3)nc3cccc1c32 [Reference Example 30, 2-phenyl-4,5-dihydro-6H-imidazo-[4,5,1-ij]quinolin-6-one oxime] | 32 |
| ON=C1CCn2c(-c3ccc(Br)cc3)nc3cccc1c32 [Reference Example 33, 2-(4-bromophenyl)-4,5-dihydro-6H-imidazo[4,5,1-ij]quinolin-6-one oxime] | 41 |
| ON=C1CCn2c(-c3ccc(C(F)(F)F)cc3)nc3cccc1c32 [Reference Example 34, 2-(4-trifluoromethylphenyl)-4,5-dihydro-6H-imidazo[4,5,1-ij]quinolin-6-oneoxime] | 32 |
| ON=C1CCn2c(-c3ccc4ccccc4c3)nc3cccc1c32 [Reference Example 36, 2-(2-naphthyl)-4,5-dihydro-6H-imidazo[4,5,1-ij]quinolin-6-one oxime] | 50 |

Test system: sensitized rat peritoneal cells (histamine release)
Test: Activity to suppress the histamine release from passively sensitized rat peritoneal cells
Format: cell-based, male Wistar rats
Details: 10 min, 1 μg/ml, 2×10^4 sensitized peritoneal cells, egg albumin, ten minutes, read-out: Percentage of the histamine release suppressed
Experimental: Peritoneal cells were collected from male Wistar rats (9 week-old) killed by exsanguination. The cells were washed by centrifugation, and passively sensitized with rat anti-egg albumin serum. 2×10^4 of the sensitized peritoneal cells (1×10^4 of the sensitized peritoneal cells in the case of the compound of Example 12) were reacted with the solution of the test compound (in 0.1% bovine serum albumin solution in HBSS (Hanks' balanced salt solution) containing 0.1% DMSO). Egg albumin was added as allergen, the reaction was allowed to take place for ten minutes. After the cease of the reaction, the amount of the histamine released was determined by post-column fluorometric assay using high-speed liquid chromatography.
The amount of the test compounds administered and the percentage of the histamine release suppressed calculated by equation 2 are shown in Table 2.
Example 123: 1-(4-chlorophenyl)-8,9-dihydro-7H-pyrrolo-[3,2,1-ij]quinolin-7-one tosylhydrazone. [formula]

| SMILES | inhibition at 1 µg/mL [%] |
| --- | --- |
| NN=C1CCn2c(-c3ccc(Cl)cc3)nc3cccc1c32 [Example 15, 2-(4-chlorophenyl)-4,5-dihydro-6H-imidazo-[4,5,1-ij]quinolin-6-one hydrazone] | 42 |

Same assay, conditions: 10 min, 3 μg/ml, 2×10^4 sensitized peritoneal cells, egg albumin, ten minutes, read-out: Percentage of the histamine release suppressed

| SMILES | inhibition at 3 µg/mL [%] |
| --- | --- |
| CC(C)=NN=C1CCn2c(-c3ccc(Cl)cc3)nc3cccc1c32 [Example 14, 2-(4-chlorophenyl)-4,5-dihydro-6H-imidazo-[4,5,1-ij]quinolin-6-one isopropylidenehydrazone] | 55 |
| Clc1ccc(-c2nc3cccc4c3n2CCC4=NNc2ccccc2)cc1 [Example 17, 2-(4-chlorophenyl)-4,5-dihydro-6H-imidazo-[4,5,1-ij]quinolin-6-one phenylhydrazone] | 40 |
| Clc1ccc(-c2cn3cccc4c3c2CCC4=NNc2ccccc2)cc1 [Example 119, 1-(4-chlorophenyl)-8,9-dihydro-7H-pyrrolo-[3,2,1-ij]quinolin-7-one phenylhydrazone] | 42 |
| Cc1ccc(S(=O)(=O)NN=C2CCc3c(-c4ccc(Cl)cc4)cn4cccc2c34)cc1 [Example 123, 1-(4-chlorophenyl)-8,9-dihydro-7H-pyrrolo-[3,2,1-ij]quinolin-7-one tosylhydrazone] | 33 |

Same assay, conditions: 10 min, 10 μg/ml, 1×10^4 sensitized peritoneal cells (Example 12), egg albumin, ten minutes, read-out: Percentage of the histamine release suppressed

| SMILES | inhibition at 10 µg/mL [%] |
| --- | --- |
| OC1CCn2c(-c3ccc(Cl)cc3)nc3cccc1c32 (centres unmarked) [Example 12, 2-(4-chlorophenyl)-4,5-dihydro-6-hydroxy-6H-imidazo[4,5,1-ij]quinoline] | 49 |

Same assay, conditions: 10 min, 10 μg/ml, 2×10^4 sensitized peritoneal cells, egg albumin, ten minutes, read-out: Percentage of the histamine release suppressed

| SMILES | inhibition at 10 µg/mL [%] |
| --- | --- |
| NN=C1CCc2c(-c3ccc(Br)cc3)cn3cccc1c23 [Example 4, 1-(4-bromophenyl)-8,9-dihydro-7H-pyrrolo[3,2,1-ij]quinolin-7-one hydrazone] | 50 |
| NN=C1CCc2c(-c3ccc(Cl)cc3)cn3cccc1c23 [Example 117, 1-(4-chlorophenyl)-8,9-dihydro-7H-pyrrolo-[3,2,1-ij]quinolin-7-one hydrazone] | 47 |
| CCOC(=O)C(=O)NC1CCc2c(-c3ccc(Cl)cc3)cn3cccc1c23 (centres unmarked) [Example 122, 1-(4-chlorophenyl)-8,9-dihydro-7-ethoxyoxalylamino-7H-pyrrolo[3,2,1-ij]quinoline] | 98 |

Test system: mice
Test: Acute toxicity, oral
Format: in vivo
Details: 1000 mg/kg oral, three mice per group, observed for 7 days
Experimental: To groups of three mice each having a body weight of 20 to 30 g were orally administered 1000 mg/kg of the compounds of Examples 15 and 117 of the present invention.

| SMILES | death within 7 days (acute toxicity) |
| --- | --- |
| NN=C1CCn2c(-c3ccc(Cl)cc3)nc3cccc1c32 [Example 15, 2-(4-chlorophenyl)-4,5-dihydro-6H-imidazo-[4,5,1-ij]quinolin-6-one hydrazone] | no mouse was found dead |
| NN=C1CCc2c(-c3ccc(Cl)cc3)cn3cccc1c23 [Example 117, 1-(4-chlorophenyl)-8,9-dihydro-7H-pyrrolo-[3,2,1-ij]quinolin-7-one hydrazone] | no mouse was found dead |
